Results reported in US20060069132A1, “Azolecarboxamide herbicides” (priority 2004, published 2006).

Experiments:
velvetleaf [1] = experiment: Test B pre-/postemergence herbicide test; format: in vivo, Abutilon theophrasti
Outline: (§1)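 Formulation: non-phytotoxic solvent mix with surfactant. Timing: preemergence on seed and postemergence on 2–18 cm plants, applied concurrently. Readout after 13–15 d greenhouse: visual 0–100 control rating against controls.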

barnyardgrass [2] = experiment: Test B pre-/postemergence herbicide test; format: in vivo, Echinochloa crus-galli
Outline: (§2)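 Greenhouse pot assay with simultaneous preemergence (treated seed) and postemergence (2–18 cm seedlings) applications of surfactant-containing, non-phytotoxic solvent formulations. Response scored visually 13–15 days later on a 0–100 scale, 100 meaning complete control.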

pigweed = experiment: Test B pre-/postemergence herbicide test; format: in vivo, Amaranthus retroflexus
Outline: as §1

barnyardgrass [3] = experiment: Test A pre-/postemergence herbicide test; format: in vivo, Echinochloa crus-galli
Outline: (§3)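 Greenhouse injury scoring (0–100, complete control = 100) at approximately ten days follows simultaneous pre- and postemergence application. Soil received a directed spray after seeding; seedlings of 2–10 cm at the one- to two-leaf stage were sprayed to runoff.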

velvetleaf [4] = experiment: Test A pre-/postemergence herbicide test; format: in vivo, Abutilon theophrasti
Outline: as §3

redroot pigweed = experiment: Test A pre-/postemergence herbicide test; format: in vivo, Amaranthus retroflexus
Outline: as §3

blackgrass = experiment: Test B postemergence herbicide test; format: in vivo, Alopecurus myosuroides; conditions: scale 0 (no effect) to 100 (complete control)
Outline: (§4)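 Greenhouse test; postemergence application to plants at 1–4 leaves (2–18 cm); paddy species at 2 leaves; evaluated visually vs controls at 13–15 days; scale 0–100 (100 = complete control).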

morningglory [5] = experiment: Test B pre-/postemergence herbicide test; format: in vivo, Ipomoea coccinea
Outline: as §2

Surinam grass = experiment: Test B pre-/postemergence herbicide test; format: in vivo, Urochloa decumbens
Outline: as §1

morningglory [6] = experiment: Test A pre-/postemergence herbicide test; format: in vivo, Ipomoea spp.
Outline: as §3

lambsquarters = experiment: Test B pre-/postemergence herbicide test; format: in vivo, Chenopodium album
Outline: as §1

giant foxtail [7] = experiment: Test B pre-/postemergence herbicide test; format: in vivo, Setaria faberi
Outline: as §1

large crabgrass [8] = experiment: Test A pre-/postemergence herbicide test; format: in vivo, Digitaria sanguinalis
Outline: as §3

wheat = experiment: Test B postemergence herbicide test; format: in vivo, Triticum aestivum; parameters: key to Wheat plant response rating: 0 = no effect, 100 = complete control; conditions: scale 0 (no effect) to 100 (complete control)
Outline: (§5)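 Postemergence plants were sprayed with formulated test chemicals at 2 to 18 cm height (1- to 4-leaf stage); paddy species were grown to the 2-leaf stage. After 13 to 15 days in a greenhouse, injury was rated visually against untreated controls on a 0–100 scale (0 = no effect, 100 = complete control).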

rice = experiment: Test B flooded paddy test; format: in vivo, Oryza sativa; conditions: 1000 g ai/ha, visual rating, scale 0 to 100 (0 no effect, 100 complete control), 13 to 15 days
Outline: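 Scale 0–100: zero equals no visible effect, 100 complete control, judged by eye relative to controls. Timing: 13 to 15 days in greenhouse post-treatment. Growth stage at spraying: two leaves (paddy) or one to four leaves, 2–18 cm (postemergence).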

corn = experiment: Test B pre-/postemergence herbicide test; format: in vivo, Zea mays
Outline: as §1

large crabgrass [9] = experiment: Test B pre-/postemergence herbicide test; format: in vivo, Digitaria sanguinalis
Outline: as §1

giant foxtail [10] = experiment: Test A pre-/postemergence herbicide test; format: in vivo, Setaria faberi
Outline: as §3

wild oat = experiment: Test B postemergence herbicide test; format: in vivo, Avena fatua; conditions: scale 0 (no effect) to 100 (complete control)
Outline: as §5

ducksalad = experiment: Test B flooded paddy test; format: in vivo, Heteranthera limosa; conditions: 1000 g ai/ha, visual rating, scale 0 to 100 (0 no effect, 100 complete control), 13 to 15 days
Outline: as §4

cocklebur = experiment: Test B pre-/postemergence herbicide test; format: in vivo, Xanthium strumarium
Outline: as §2

[11] = tested on: small flower umbrella sedge; experiment: Test B flooded paddy test; format: in vivo, Cyperus difformis; conditions: 1000 g ai/ha, visual rating, scale 0 to 100 (0 no effect, 100 complete control), 13 to 15 days
Outline: as §4

barnyardgrass [12] = experiment: Test B flooded paddy test; format: in vivo, Echinochloa crus-galli; conditions: 1000 g ai/ha, visual rating, scale 0 to 100 (0 no effect, 100 complete control), 13 to 15 days
Outline: as §4

[13] = 500 g ai/ha, visual rating 0-100, 0 no effect, 100 complete control, preemergence
[14] = Postemergence, 500 g ai/ha, visual rating after 13 to 15 days, scale 0 (no effect) to 100 (complete control)
[15] = postemergence, 125 g ai/ha, visual rating, scale 0 (no effect) to 100 (complete control)
[16] = preemergence, 125 g ai/ha, 0 to 100 scale, 0 is no effect, 100 is complete control
[17] = Postemergence, 500 g ai/ha, 0 to 100 scale, 0 no effect, 100 complete control
[18] = Postemergence, 2000 g ai/ha, 0 to 100 scale, 0 no effect, 100 complete control
[19] = Preemergence, 500 g ai/ha, visual rating, 0 to 100 scale (0 no effect, 100 complete control)
[20] = Preemergence, 2000 g ai/ha, visual rating, 0 to 100 scale (0 no effect, 100 complete control)
[21] = Postemergence, 500 g ai/ha, visual rating after 13 to 15 days
[22] = postemergence, 125 g ai/ha, visual rating

CC(=NO)c1cc(NC(=O)c2cc(C(C)(C)C)nn2C)ccc1F [Compound 109]
90: Plant response rating, Barnyardgrass (barnyardgrass [3]; [18]) | Barnyardgrass plant response rating (barnyardgrass [3]; [20]) | Plant response rating, Lambsquarters (lambsquarters; [13]) | Plant response rating, Foxtail, Giant (giant foxtail [10]; [18]) | Foxtail, Giant plant response rating (giant foxtail [10]; [20]) | Ducksalad plant response rating (ducksalad)
60: Plant response rating, Velvetleaf (velvetleaf [1]; [13]) | Plant response rating, Surinam Grass (Surinam grass; [16]) | Sedge, Umbrella plant response rating [11]
15: Velvetleaf plant response rating (velvetleaf [4]; [19])
10: Velvetleaf plant response rating (velvetleaf [1]; [15]) | Barnyardgrass plant response rating (barnyardgrass [2]; [15]) | Plant response rating, Morningglory (morningglory [5]; [14]) | Plant response rating, Morningglory (morningglory [5]; [16]) | Surinam Grass plant response rating (Surinam grass; [15]) | Lambsquarters plant response rating (lambsquarters; [15]) | Wheat plant response rating (wheat; [22]) | Plant response rating, Corn (corn; [13]) | Corn plant response rating (corn; [15]) | Plant response rating, Crabgrass, Large (large crabgrass [9]; [14]) | Crabgrass, Large plant response rating (large crabgrass [9]; [15])
100: Plant response rating, Barnyardgrass (barnyardgrass [2]; [13]) | Plant response rating, Pigweed (pigweed; [13]) | Pigweed plant response rating (redroot pigweed; [17]) | Plant response rating, Pigweed (redroot pigweed; [18]) | Pigweed plant response rating (redroot pigweed; [20]) | Plant response rating, Morningglory (morningglory [5]; [13]) | Plant response rating, Foxtail, Giant (giant foxtail [7]; [13]) | Plant response rating, Crabgrass, Large (large crabgrass [9]; [13])
20: Plant response rating, Velvetleaf (velvetleaf [1]; [14]) | Plant response rating, Velvetleaf (velvetleaf [1]; [16]) | Plant response rating, Barnyardgrass (barnyardgrass [2]; [14]) | Pigweed plant response rating (pigweed; [15]) | Plant response rating, Blackgrass (blackgrass; [21]) | Plant response rating, Surinam Grass (Surinam grass; [14]) | Plant response rating, Lambsquarters (lambsquarters; [14]) | Plant response rating, Lambsquarters (lambsquarters; [16]) | Plant response rating, Foxtail, Giant (giant foxtail [7]; [14]) | Foxtail, Giant plant response rating (giant foxtail [7]; [15]) | Crabgrass, Large plant response rating (large crabgrass [8]; [17]) | Plant response rating, Wheat (wheat; [21]) | Plant response rating, Corn (corn; [14]) | Oat, Wild plant response rating (wild oat; [22]) | Plant response rating, Cocklebur (cocklebur; [13])
55: Plant response rating, Crabgrass, Large (large crabgrass [8]; [18]) | Foxtail, Giant plant response rating (giant foxtail [10]; [17])
45: Plant response rating, Velvetleaf (velvetleaf [4]; [18]) | Morningglory plant response rating (morningglory [6]; [20])
80: Plant response rating, Barnyardgrass (barnyardgrass [2]; [16]) | Plant response rating, Surinam Grass (Surinam grass; [13]) | Crabgrass, Large plant response rating (large crabgrass [8]; [19]) | Plant response rating, Crabgrass, Large (large crabgrass [9]; [16]) | Foxtail, Giant plant response rating (giant foxtail [10]; [19]) | Barnyardgrass plant response rating (barnyardgrass [12])
30: Plant response rating, Pigweed (pigweed; [16]) | Plant response rating, Oat, Wild (wild oat; [21]) | Cocklebur plant response rating (cocklebur; [15])
40: Plant response rating, Morningglory (morningglory [6]; [18])
35: Morningglory plant response rating (morningglory [6]; [19])
85: Barnyardgrass plant response rating (barnyardgrass [3]; [19])
95: Crabgrass, Large plant response rating (large crabgrass [8]; [20])
75: Barnyardgrass plant response rating (barnyardgrass [3]; [17]) | Pigweed plant response rating (redroot pigweed; [19])
0: Blackgrass plant response rating (blackgrass; [22]) | Morningglory plant response rating (morningglory [5]; [15]) | Plant response rating, Corn (corn; [16]) | Plant response rating, Cocklebur (cocklebur; [16])
70: Plant response rating, Pigweed (pigweed; [14]) | Plant response rating, Foxtail, Giant (giant foxtail [7]; [16]) | Rice plant response rating (rice) | Plant response rating, Cocklebur (cocklebur; [14])
25: Velvetleaf plant response rating (velvetleaf [4]; [17]) | Velvetleaf plant response rating (velvetleaf [4]; [20]) | Morningglory plant response rating (morningglory [6]; [17])
